Experimental data: ChEMBL document CHEMBL5678818, “Discovery of potent SOS1 inhibitors that block RAS activation via disruption of the RAS-SOS1 interaction” (Proc Natl Acad Sci U S A, 2019)

What was measured:
[1] = biological target: Receptor-type tyrosine-protein kinase FLT3 (Homo sapiens) (UniProt P36888); assay: Inhibition of FLT3 (unknown origin) assessed as residual activity at 100 nM by KINOMEscan analysis relative to control
[2] = biological target: Ribosomal protein S6 kinase alpha-5 (Homo sapiens) (UniProt O75582); assay: Inhibition of N-terminal RPS6KA5 kinetic domain 1 (unknown origin) assessed as residual activity at 100 nM by KINOMEscan analysis relative to control
[3] = biological target: Cyclin-dependent kinase 4/cyclin D1 (Homo sapiens) (UniProt P11802+P24385); assay: Inhibition of CDK4-cyclin D1 (unknown origin) assessed as residual activity at 100 nM by KINOMEscan analysis relative to control; format: protein-complex assay
[4] = biological target: Serine/threonine-protein kinase WNK1 (Homo sapiens) (UniProt Q9H4A3); assay: Inhibition of WNK1 (unknown origin) assessed as residual activity at 100 nM by KINOMEscan analysis relative to control
[5] = biological target: T1, Dual specificity mitogen-activated protein kinase kinase 4 (Homo sapiens) (UniProt P45985); assay: Inhibition of MEK4 (unknown origin) assessed as residual activity at 100 nM by KINOMEscan analysis relative to control
T1 sequence (whole entry): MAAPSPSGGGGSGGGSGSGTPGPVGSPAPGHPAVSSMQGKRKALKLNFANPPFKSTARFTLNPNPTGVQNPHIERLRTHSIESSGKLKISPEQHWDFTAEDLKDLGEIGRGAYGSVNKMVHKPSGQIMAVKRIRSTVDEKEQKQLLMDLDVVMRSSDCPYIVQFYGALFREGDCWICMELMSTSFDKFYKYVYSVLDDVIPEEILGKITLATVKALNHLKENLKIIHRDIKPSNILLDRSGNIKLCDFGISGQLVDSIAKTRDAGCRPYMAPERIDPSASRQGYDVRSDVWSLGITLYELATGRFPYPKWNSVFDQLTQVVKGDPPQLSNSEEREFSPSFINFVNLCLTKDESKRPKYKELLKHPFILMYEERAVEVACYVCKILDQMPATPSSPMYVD

[6] = biological target: Fibroblast growth factor receptor 1 (Homo sapiens) (UniProt P11362); assay: Inhibition of FGFR1 (unknown origin) assessed as residual activity at 100 nM by KINOMEscan analysis relative to control
[7] = biological target: T2, MAP kinase-activated protein kinase 5 (Homo sapiens) (UniProt Q8IW41); assay: Inhibition of MAPKAPK5 (unknown origin) assessed as residual activity at 100 nM by KINOMEscan analysis relative to control
T2 sequence (whole entry): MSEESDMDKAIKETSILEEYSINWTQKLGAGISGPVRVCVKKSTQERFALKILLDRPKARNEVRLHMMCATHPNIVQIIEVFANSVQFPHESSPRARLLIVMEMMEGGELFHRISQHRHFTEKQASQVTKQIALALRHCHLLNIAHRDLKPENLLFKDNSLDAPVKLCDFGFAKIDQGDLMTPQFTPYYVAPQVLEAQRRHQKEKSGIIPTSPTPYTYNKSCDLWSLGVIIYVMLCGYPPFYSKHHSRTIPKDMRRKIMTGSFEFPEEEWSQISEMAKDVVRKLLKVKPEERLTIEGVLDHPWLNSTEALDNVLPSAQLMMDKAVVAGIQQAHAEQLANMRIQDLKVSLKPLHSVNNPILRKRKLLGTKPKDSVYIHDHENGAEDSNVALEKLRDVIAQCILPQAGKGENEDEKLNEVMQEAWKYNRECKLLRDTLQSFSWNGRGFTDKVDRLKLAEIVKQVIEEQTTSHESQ

[8] = biological target: Serine/threonine-protein kinase Nek6 (Homo sapiens) (UniProt Q9HC98); assay: Inhibition of NEK6 (unknown origin) assessed as residual activity at 100 nM by KINOMEscan analysis relative to control
[9] = biological target: T3, Tyrosine-protein kinase ZAP-70 (Homo sapiens) (UniProt P43403); assay: Inhibition of ZAP70 (unknown origin) assessed as residual activity at 100 nM by KINOMEscan analysis relative to control
T3 sequence (whole entry): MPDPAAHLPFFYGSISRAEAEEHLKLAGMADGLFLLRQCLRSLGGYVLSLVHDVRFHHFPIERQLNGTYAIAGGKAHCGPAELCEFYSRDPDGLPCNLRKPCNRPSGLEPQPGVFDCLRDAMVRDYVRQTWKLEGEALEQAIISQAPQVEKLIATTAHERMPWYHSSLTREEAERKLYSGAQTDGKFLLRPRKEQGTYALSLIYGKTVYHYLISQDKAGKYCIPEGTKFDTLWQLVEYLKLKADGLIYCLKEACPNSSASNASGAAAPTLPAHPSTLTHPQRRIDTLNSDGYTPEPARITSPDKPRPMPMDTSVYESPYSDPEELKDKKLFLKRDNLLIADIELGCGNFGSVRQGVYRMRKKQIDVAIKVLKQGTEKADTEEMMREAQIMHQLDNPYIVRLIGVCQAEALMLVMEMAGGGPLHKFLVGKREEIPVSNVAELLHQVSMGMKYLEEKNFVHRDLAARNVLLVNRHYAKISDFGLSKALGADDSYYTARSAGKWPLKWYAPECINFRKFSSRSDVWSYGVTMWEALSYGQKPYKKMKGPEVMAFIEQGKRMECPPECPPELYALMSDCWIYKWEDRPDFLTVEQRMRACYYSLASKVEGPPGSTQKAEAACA

[10] = biological target: RAF proto-oncogene serine/threonine-protein kinase (Homo sapiens) (UniProt P04049); assay: Inhibition of RAF1 (unknown origin) assessed as residual activity at 100 nM by KINOMEscan analysis relative to control
[11] = biological target: Calcium/calmodulin-dependent protein kinase type 1D (Homo sapiens) (UniProt Q8IU85); assay: Inhibition of CAMK1D (unknown origin) assessed as residual activity at 100 nM by KINOMEscan analysis relative to control
[12] = biological target: Phosphatidylinositol 4-phosphate 5-kinase type-1 alpha (Homo sapiens) (UniProt Q99755); assay: Inhibition of PIP5K1A (unknown origin) assessed as residual activity at 100 nM by KINOMEscan analysis relative to control
[13] = biological target: T4, Uncharacterized serine/threonine-protein kinase SBK3 (Homo sapiens) (UniProt P0C264); assay: Inhibition of SgK110 (unknown origin) assessed as residual activity at 100 nM by KINOMEscan analysis relative to control
T4 sequence (whole entry): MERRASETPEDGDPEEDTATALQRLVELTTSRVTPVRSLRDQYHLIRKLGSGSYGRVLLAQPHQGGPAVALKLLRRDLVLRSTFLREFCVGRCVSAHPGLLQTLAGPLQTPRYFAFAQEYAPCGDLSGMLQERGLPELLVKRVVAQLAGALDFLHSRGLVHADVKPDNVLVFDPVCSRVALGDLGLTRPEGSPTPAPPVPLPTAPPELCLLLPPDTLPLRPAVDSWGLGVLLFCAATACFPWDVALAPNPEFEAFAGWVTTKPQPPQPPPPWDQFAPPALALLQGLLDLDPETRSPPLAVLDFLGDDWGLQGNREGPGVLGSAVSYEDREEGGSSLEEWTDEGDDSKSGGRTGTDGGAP

Sequence of Calcium/calmodulin-dependent protein kinase type 1D (Homo sapiens) (Q8IU85 whole entry, looked up): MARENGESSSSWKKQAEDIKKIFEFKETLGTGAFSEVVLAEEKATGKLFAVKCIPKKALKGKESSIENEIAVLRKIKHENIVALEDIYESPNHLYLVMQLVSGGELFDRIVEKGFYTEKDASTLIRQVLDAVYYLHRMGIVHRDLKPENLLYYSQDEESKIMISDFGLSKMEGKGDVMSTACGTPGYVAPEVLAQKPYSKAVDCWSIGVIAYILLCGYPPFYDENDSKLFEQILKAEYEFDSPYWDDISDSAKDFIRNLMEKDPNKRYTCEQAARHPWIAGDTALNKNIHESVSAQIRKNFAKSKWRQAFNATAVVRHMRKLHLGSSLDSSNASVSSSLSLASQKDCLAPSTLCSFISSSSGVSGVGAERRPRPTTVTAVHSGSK
Sequence of Ribosomal protein S6 kinase alpha-5 (Homo sapiens) (O75582 whole entry, looked up, the tested form may be a part): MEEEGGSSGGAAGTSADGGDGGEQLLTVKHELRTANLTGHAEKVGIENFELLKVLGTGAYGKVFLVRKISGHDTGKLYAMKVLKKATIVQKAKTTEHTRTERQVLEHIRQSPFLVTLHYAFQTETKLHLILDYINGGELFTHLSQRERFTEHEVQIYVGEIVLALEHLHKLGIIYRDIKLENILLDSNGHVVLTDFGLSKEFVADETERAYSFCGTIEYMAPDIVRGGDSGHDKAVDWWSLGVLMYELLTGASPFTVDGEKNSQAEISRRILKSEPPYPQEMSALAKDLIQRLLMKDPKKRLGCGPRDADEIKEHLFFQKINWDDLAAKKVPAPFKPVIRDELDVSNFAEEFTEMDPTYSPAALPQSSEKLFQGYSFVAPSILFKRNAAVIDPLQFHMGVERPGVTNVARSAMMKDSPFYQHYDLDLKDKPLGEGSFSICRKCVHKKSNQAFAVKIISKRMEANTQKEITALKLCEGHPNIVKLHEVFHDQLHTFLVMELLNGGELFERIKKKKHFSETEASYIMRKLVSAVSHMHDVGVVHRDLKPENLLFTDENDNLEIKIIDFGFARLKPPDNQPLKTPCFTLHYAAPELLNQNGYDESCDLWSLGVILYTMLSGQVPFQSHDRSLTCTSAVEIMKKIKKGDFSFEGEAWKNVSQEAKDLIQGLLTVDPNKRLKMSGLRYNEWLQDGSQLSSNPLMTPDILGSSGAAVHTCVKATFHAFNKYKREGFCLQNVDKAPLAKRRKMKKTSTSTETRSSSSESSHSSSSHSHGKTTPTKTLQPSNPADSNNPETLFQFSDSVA
Sequence of Phosphatidylinositol 4-phosphate 5-kinase type-1 alpha (Homo sapiens) (Q99755 whole entry): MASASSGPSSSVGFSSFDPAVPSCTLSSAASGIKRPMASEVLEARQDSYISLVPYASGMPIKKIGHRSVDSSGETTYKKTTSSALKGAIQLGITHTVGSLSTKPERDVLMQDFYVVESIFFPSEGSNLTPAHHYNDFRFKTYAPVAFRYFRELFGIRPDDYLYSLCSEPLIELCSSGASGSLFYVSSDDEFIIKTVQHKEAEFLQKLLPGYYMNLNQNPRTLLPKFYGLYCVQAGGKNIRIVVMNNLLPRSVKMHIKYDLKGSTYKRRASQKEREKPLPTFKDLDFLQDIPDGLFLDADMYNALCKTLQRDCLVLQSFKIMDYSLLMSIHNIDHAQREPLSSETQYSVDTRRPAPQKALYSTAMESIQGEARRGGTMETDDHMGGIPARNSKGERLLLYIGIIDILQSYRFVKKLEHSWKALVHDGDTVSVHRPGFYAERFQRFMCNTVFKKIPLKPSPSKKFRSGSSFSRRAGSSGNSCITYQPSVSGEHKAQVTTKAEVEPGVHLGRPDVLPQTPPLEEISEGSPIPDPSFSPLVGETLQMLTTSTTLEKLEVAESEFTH
Sequence of Serine/threonine-protein kinase WNK1 (Homo sapiens) (Q9H4A3 whole entry, looked up): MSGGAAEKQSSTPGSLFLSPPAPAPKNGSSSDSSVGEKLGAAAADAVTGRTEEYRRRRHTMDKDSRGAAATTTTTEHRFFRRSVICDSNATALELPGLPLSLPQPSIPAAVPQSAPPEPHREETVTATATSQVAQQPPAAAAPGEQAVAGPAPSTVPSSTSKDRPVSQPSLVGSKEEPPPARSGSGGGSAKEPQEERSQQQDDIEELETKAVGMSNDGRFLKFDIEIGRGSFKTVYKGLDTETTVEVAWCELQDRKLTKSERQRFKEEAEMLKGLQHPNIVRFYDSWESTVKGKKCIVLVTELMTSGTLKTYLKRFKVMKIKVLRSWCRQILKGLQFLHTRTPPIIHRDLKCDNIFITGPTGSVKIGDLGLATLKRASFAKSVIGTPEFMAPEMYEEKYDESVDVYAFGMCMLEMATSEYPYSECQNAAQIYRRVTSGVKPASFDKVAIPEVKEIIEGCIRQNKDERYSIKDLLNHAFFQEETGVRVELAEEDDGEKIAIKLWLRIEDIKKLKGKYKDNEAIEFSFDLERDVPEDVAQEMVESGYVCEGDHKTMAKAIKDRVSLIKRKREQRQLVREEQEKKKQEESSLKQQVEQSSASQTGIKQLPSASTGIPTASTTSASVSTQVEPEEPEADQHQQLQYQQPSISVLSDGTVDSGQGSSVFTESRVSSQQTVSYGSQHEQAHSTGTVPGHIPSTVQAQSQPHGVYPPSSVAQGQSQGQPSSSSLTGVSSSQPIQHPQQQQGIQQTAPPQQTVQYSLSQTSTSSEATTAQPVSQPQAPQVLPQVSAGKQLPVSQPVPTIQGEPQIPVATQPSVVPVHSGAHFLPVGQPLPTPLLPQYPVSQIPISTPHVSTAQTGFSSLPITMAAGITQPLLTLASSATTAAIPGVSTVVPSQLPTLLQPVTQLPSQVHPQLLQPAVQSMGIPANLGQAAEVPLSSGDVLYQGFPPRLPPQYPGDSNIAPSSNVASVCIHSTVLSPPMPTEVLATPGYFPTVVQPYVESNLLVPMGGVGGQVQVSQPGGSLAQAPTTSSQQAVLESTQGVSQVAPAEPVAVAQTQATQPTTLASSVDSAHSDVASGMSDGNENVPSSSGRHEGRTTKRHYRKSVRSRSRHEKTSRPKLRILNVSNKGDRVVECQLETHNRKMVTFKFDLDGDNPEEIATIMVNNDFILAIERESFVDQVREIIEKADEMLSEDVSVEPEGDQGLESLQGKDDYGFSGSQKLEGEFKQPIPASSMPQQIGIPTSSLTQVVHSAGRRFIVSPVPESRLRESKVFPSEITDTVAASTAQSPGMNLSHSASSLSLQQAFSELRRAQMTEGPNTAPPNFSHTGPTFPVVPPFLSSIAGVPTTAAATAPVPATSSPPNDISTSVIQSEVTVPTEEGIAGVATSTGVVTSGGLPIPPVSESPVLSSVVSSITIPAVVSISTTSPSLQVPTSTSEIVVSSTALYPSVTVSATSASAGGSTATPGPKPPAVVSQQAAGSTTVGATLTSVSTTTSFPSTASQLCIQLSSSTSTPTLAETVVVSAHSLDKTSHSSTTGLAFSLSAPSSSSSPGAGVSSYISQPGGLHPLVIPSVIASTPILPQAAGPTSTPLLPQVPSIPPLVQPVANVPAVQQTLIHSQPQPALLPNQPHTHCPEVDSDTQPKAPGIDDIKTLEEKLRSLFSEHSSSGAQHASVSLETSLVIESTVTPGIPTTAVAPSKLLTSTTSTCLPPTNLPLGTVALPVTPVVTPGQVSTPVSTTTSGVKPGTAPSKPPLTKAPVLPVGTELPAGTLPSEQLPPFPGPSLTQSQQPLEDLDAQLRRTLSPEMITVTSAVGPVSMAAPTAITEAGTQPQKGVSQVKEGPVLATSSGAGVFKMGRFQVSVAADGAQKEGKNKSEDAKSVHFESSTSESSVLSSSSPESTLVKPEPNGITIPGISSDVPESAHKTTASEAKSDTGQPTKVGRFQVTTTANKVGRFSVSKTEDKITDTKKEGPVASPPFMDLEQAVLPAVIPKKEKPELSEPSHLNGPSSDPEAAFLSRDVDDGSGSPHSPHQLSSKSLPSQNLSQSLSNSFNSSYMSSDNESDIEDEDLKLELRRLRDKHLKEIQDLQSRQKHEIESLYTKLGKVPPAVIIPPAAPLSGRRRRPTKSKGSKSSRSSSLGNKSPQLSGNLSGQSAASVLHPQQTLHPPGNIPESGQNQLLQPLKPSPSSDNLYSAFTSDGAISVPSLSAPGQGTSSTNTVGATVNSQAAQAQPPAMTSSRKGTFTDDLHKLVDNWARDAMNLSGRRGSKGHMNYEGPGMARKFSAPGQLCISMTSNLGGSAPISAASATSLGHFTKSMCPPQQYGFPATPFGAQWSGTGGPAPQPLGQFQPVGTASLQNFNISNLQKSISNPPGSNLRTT
Sequence of Receptor-type tyrosine-protein kinase FLT3 (Homo sapiens) (P36888 whole entry, the tested form may be a part): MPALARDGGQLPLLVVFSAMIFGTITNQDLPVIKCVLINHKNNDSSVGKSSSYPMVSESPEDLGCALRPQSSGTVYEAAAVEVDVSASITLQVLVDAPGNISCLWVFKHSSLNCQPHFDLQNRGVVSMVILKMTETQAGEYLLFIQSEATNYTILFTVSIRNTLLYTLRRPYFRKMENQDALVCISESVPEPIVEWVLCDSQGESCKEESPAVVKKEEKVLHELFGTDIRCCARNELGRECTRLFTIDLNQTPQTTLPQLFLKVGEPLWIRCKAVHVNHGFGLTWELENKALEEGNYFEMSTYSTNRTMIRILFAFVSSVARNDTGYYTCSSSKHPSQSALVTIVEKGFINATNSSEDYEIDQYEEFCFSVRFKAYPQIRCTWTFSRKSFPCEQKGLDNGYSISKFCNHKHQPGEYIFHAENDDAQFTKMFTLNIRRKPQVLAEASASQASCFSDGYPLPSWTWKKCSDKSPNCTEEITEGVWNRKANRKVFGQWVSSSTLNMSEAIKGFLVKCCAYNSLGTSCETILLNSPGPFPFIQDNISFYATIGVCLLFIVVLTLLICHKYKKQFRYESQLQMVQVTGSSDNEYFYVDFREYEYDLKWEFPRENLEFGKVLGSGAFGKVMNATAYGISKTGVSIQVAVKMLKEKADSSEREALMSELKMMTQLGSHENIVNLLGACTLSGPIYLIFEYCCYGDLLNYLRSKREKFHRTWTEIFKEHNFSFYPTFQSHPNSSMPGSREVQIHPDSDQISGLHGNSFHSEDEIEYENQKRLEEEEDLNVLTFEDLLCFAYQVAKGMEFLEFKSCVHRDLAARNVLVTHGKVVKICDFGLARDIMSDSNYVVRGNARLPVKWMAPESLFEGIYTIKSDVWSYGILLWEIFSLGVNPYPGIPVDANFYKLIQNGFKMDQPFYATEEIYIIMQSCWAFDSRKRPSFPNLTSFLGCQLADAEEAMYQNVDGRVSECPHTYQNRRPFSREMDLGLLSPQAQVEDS

Structure (SMILES): COc1cc2ncnc(N[C@H](C)c3cccc4ccccc34)c2cc1OC
- Activity [1]: 83%
- Activity [2]: 93%
- Activity [3]: 92%
- Activity [4]: 83%
- Activity [5]: 93%
- Activity [6]: 100%
- Activity [7]: 94%
- Activity [8]: 79%
- Activity [9]: 77%
- Activity [10]: 85%
- Activity [11]: 88%
- Activity [12]: 90%
- Activity [13]: 100%
